Patent US11352352B2, “Aminopyrimidine compound, preparation method therefor and use thereof” (BEIJING ADAMADLE BIOTECHNOLOGY LIMITED LIABILITY COMPANY, priority 2017, dated 2022)

Tests used:
A-431 = assay: Cell proliferation inhibition experiment, CellTiter-Glo (CTG) method; type: cell-based; details: Homo sapiens, A-431, 72 h, A-431 cells, 3 days
How it was run: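 CTG luminescence measured after 3-day compound exposure, with a T0 plate read the day after seeding and solvent wells as control. Nine concentrations, 3-fold steps, in triplicate: A-431 from 30 μM, NCI-H1975 and PC-9 from 1.111 μM. IC50 derived by non-linear S-curve regression.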

NCI-H1975 = assay: as above; type: cell-based; details: for IC50: Homo sapiens, NCI-H1975, 72 h, NCI-H1975 cells, CTG, 3 days; for A-431/NCI-H1975 Selectivity: ratio of A-431 IC50 to NCI-H1975 IC50
How it was run: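 NCI-H1975 cells with viability above 90% by trypan blue were seeded at 90 μL per well in black 96-well plates and incubated overnight at 37° C., 5% CO2. Compounds were added at nine concentrations in triplicate, and viability was measured with CellTiter-Glo luminescence on EnVision. IC50 came from non-linear S-curve fitting in GraphPad Prism 5.0.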

PC-9 = assay: as above; type: cell-based; details: Homo sapiens, PC-9, 72 h, PC-9 cells, 3 days
How it was run: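 Cells in log-phase growth (viability above 90% by trypan blue) were seeded at 90 μL per well in black-walled, clear-bottom 96-well plates and incubated overnight at 37° C., 5% CO2. A T0 plate was read the next day. Test compounds were added at nine concentrations in triplicate with a solvent control. Viability was measured by CellTiter-Glo luminescence on EnVision, and IC50 came from non-linear S-curve fitting in GraphPad Prism 5.0.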

P-gp = molecular target: T1, P-gp (Homo sapiens, UniProt P08183); assay: P-gp substrate evaluation experiment (MDCKII-MDR1 Transwell drug penetration test); type: in vitro ADME; details: dog, MDCK-MDR1, pH 7.4; read-out: ER (Efflux Ratio)
T1 construct: expressed in transfected cells; host or cells: MDCKII-MDR1 (MDCKII canine kidney cells expressing MDR1)
Experimental: P-gp Substrate Evaluation Experiment
Cell Culture • 1) High glucose DMEM medium containing L-glutamine was used and 10% fetal bovine serum, 0.1 mg/mL streptomycin and 0.6 mg/mL penicillin were added. • 2) MDCKII-MDR1 was cultured in a T-75 cell culture bottle. The incubator was set at the condition of 37° C., 5% CO2 and 95% relative humidity. Cells could be inoculated in Transwell when the cell confluence reached 70-90%. • 3) Before cell plant, 50 μL cell culture medium was added to each well in the upper chamber of the Transwell, and […] cell culture medium was added to the lower chamber of the Transwell.
Inoculation of MDCKII-MDR1 Cells • 1) Cell suspension was added to the upper chamber of the 96-well Transwell plate with […] each well, and the final inoculation density was 5.45×10^5 cells/cm^2. • 2) The medium was changed 48 hours after inoculation, the culture was carried out for 4-7 days, and the medium was changed every other day.
Evaluation of Cell Monolayer Integrity • 1) After 4-7 days of culture, MDCKII-MDR1 and MDKII should merge and differentiate completely. At this time, they could be applied to penetration test. • 2) The resistance of cell monolayer was measured by a resistance meter (Millipore, USA) and the resistance of each well was recorded. • 3) After finishing the detection, the Transwell plate was put back into the incubator. • 4) Resistance value was calculated: Resistance measured (ohms)×layer area (cm^2)=TEER value (ohm·cm^2)
If TEER value was less than 42 ohms·cm^2, the well can not be used for penetration testing.
Drug Penetration Test • 1) The MDCKII-MDR1 Transwell plate was taken out from the incubator. The cell monolayer was rinsed with HBSS buffer (25 mM HEPES, pH 7.4) twice and incubated for 30 minutes at 37° C. • 2) The transport rate of compounds from the top to the bottom was determined. […] 70 μL supernatant was drawn, diluted with equal volume of water and then subjected to LC-MS/MS analysis. All samples were prepared in three parallel ways. • 6) The cell monolayer integrity after 2-hour incubation was evaluated by leakage of fluorescent yellow, HBSS (25 mM HEPES, pH 7.4) was used to dilute the stock solution of fluorescent yellow till the final concentration was 100 μM. 100 μL fluorescent yellow solution was added to each well in the upper chamber of the Transwell plate and 300 μL HBSS (25 mM HEPES, pH 7.4) was added to each well in the lower chamber of the Transwell plate. After incubation at 37° C. for 30 minutes, 80 μL solution was drawn respectively from each well in the upper and lower chamber to a new 96-well plate. The fluorescence was determined at 485 nm as excitation wavelength and 530 nm as emission wavelength by using a microplate reader.
Data calculation was carried out through Excel, the apparent permeability index (Papp, cm/s) of compounds was calculated through the formula shown as follow: […]
wherein, the membrane area in the formula is the membrane area of Transwell-96 plate (0.143 cm^2); the unit of incubation time is second (s).
Efflux ratio was calculated through the formula shown as follow: […]

T1 sequence (P08183 whole entry): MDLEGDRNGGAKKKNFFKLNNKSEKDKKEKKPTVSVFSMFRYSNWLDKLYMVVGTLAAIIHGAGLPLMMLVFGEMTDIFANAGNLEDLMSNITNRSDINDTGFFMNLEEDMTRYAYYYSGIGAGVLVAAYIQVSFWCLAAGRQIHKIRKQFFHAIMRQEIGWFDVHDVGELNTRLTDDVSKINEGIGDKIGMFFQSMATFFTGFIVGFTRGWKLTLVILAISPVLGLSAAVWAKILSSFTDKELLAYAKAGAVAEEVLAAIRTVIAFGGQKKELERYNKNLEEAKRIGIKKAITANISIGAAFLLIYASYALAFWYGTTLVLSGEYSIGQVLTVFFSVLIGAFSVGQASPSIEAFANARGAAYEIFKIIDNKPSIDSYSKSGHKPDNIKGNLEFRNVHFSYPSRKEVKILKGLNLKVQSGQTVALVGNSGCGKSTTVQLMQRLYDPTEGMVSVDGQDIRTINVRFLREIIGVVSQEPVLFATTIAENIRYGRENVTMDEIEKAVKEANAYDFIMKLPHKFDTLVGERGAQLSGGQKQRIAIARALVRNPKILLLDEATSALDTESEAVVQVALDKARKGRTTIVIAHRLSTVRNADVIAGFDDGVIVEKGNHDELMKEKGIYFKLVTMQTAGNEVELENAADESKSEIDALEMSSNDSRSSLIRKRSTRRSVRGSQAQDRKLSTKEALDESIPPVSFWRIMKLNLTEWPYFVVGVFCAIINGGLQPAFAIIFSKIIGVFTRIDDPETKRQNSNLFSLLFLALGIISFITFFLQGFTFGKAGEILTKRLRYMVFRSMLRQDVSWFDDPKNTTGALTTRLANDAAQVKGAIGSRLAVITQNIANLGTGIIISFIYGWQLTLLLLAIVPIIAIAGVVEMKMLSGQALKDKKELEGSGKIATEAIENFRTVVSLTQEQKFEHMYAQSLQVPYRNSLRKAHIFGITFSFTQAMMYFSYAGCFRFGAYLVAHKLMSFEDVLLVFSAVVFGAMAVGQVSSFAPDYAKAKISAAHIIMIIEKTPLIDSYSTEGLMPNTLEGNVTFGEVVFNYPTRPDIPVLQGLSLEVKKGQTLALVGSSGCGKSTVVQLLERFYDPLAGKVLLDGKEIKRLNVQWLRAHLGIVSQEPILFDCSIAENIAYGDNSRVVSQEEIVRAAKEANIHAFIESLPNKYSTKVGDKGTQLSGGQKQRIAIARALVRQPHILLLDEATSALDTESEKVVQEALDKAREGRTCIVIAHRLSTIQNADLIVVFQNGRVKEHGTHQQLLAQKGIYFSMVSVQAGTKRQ

IC50 (A-431) [nM] | IC50 (NCI-H1975) [nM] | IC50 (PC-9) [nM] | efflux ratio at 2 h (P-gp) | SMILES | A-431/NCI-H1975 Selectivity (NCI-H1975)
983 | 10.4 | 11.7 | 11.4 | C=CC(=O)Nc1cc(Nc2cc(-c3ccc4c(cnn4C)c3)ncn2)c(OC)cc1N1CCC(N2CCN(C3COC3)CC2)CC1 [compound 210] | 94.5
1020 | 12.5 | 12.7 | 15.8 | C=CC(=O)Nc1cc(Nc2cc(-c3ccc4ncsc4c3)ncn2)c(OC)cc1N1CCN(CCN(C)C)CC1 [compound 250] | 81.9
1100 | 12.5 | 7 | 42.6 | C=CC(=O)Nc1cc(Nc2cc(-c3ccc4ncsc4c3)ncn2)c(OC)cc1NCCN(C)C [compound 251] | 88.2
1040 | 16.1 | 29.3 | 14.6 | C=CC(=O)Nc1cc(Nc2cc(-c3ccc4c(cnn4C)c3)ncn2)c(OC)cc1N1CCN(CCO)CC1 [compound 267] | 64.4
